In patent EP0233459A1, “Medicament containing a magnesium-urea complex of acetylsalicylic acid and process for the preparation of this complex” (ARTIKA INTERNATIONAL (HONG-KONG) LIMITED, priority 1986, dated 1987):

Assays:
[1] = system: oreille de lapin; details: in vivo
Text: Une expérience a été menée sur lapins, afin de déterminer le temps de saignement modifié par l'administration d'ASMU et d'aspirine à doses équivalentes.

[2] = system: oedème provoqué sur patte de rat; experiment: Induced rat paw oedema (formol or ovalbumine; tables do not say which); format: in vivo; details: for Δ V1 heure: 1 heure; for Δ V1 heure / Δ V3 heures / VARIATIONS DE VOLUME EXPRIME EN % / INDICE DE PROTECTION: 20 mg/kg en équivalent aspirine; for Δ V3 heures: 3 heures
Procedure: Deux tests de production d'oedème provoqué sur patte de rat, l'un au formol, et l'autre à l'ovalbumine ont été choisis. Dans les deux cas les mesures ont été opérées en incluant une série d'animaux traitée avec de l'aspirine, en comparaison de celle traitée avec l'ASMU.
La dose d'anti-inflammatoire est de 20 mg/kg dans les trois cas, en équivalent aspirine.

[3] = system: souris; experiment: Hot plate test (analgesic activity); format: in vivo; details: moyenne de dix essais
Text: Le test dit "de la plaque chauffante" a donc été pratiqué pour déterminer de la valeur de l'ASMU en comparaison avec l'aspirine. Le principe de la méthode consiste à poser une souris sur une plaque dont on a élevé la température en fonction du temps. On note la température à laquelle la souris saute, la sensation de chaleur devenant douleur. Cette température est relativement fixe pour chaque animal.
En recommançant la même expérience avec la souris après administration d'une dose d'un analgésique, on notera une température plus élevée qui sera fonction de la dose et de l'action antalgique de la substance.
Dans le tableau V ci-après ont été rassemblés les ré-sultats, correspondants à une moyenne de dix essais obtenus pour l'aspirine (AAS), l'"ASPEGIC" (ASL) et l'ASMU.

[4] = une heure après l'administration, literature knowledge; cited from earlier work
[5] = aspirine, literature knowledge; cited from earlier work
[6] = même dose d'aspirine, une heure après administration; 60 min; cited from earlier work
[7] = system: muqueuse gastrique; format: in vivo, rat
Text: En addition des résultats obtenus lors de l'étude de la toxicité générale de l'ASMU, une expérimentation particulière a été menée sur le rat pour déterminer de façon plus précise l'action irritant sur la muqueuse gastrique que peut développer l'ASMU par rapport à l'aspirine.
Le rat placé dans des conditions de contrainte (cage de petite dimension, n'interdisant pas le mouvement, mais empêchant l'animal de se déplacer et même de se retourner) pendant une durée de douze heures pendant plusieurs jours, développe rapidement une irritation de l'estomac qui évolue jusqu'à l'ulcère.
Sur cet animal sensibilisé, on peut tester, en même temps que la contrainte, l'action de médicaments irritants qui accélèrent le processus de formation de l'ulcère. En fin d'expé-rience, on sacrifie les animaux, et l'examen de la muqueuse gastrique permet de tirer des conclusions sur le pouvoir irritant des substances en comparaison avec les produits de référence.

[8] = in vivo
Text: L'étude de la biodisponibilité de l'ASMU a été effec­tuée sur diverses espèces animales et sur l'homme, en réalisant des dosages de la forme acétylée et désacétylée dans le temps.

[9] = état sec
[10] = system: porc; details: in vivo
[11] = system: rat; details: in vivo
[12] = pH of the aqueous solution; format: physicochemical; details: solution aqueuse, dix pour cent (p/v)
Text: La solution aqueuse du complexe ASMU, à concentration de dix pour cent (p/v), présente une valeur de pH très proche de 6, donc proche de la neutralité et tout à fait compatible avec celui du pH sanguin.

[13] = system: ostéochondrites déformantes infectieuses; experiment: Therapeutic use in infectious deforming osteochondritis; format: in vivo; details: tous les cas traités
Text: A titre d'exemple d'application thérapeutique inhabituelle, on a pu observer l'action curative de l'ASMU dans le traitement d'ostéochondrites déformantes infectieuses. […] Seule la déformation a persisté lorsqu'elle existait, comme on pouvait s'y attendre.

[14] = system: rat; details: in vivo; remark: listed apart in the source
Text: (§1) Des expérimentations ont été réalisées sur l'ASMU. La toxicité aiguë a été étudiée par la détermination classique de la DL₅₀, correspondant à la dose de substance qui, administrée à un groupe d'animaux, provoque la port de la moitié d'entre eux.

[15] = system: souris; details: in vivo
Text: as §1

[16] = in vivo; remark: listed apart in the source
[17] = human, in vivo, po, 5 h

CC(=O)Oc1ccccc1C(=O)O [A S L]
ALLONGEMENT DU TEMPS DE SAIGNEMENT [1]: 35% | Δ V1 heure ([2]; 20 mg/kg): 0,490±0,04 cm^3 | Δ V3 heures ([2]; 20 mg/kg): 0,700±0,15 cm^3 | VARIATIONS DE VOLUME EXPRIME EN % ([2]; A 1 heure, 20 mg/kg): 50,16% | VARIATIONS DE VOLUME EXPRIME EN % ([2]; A 3 heures, 20 mg/kg): 72,29% | INDICE DE PROTECTION ([2]; à 1 heure, 20 mg/kg): 35% | INDICE DE PROTECTION ([2]; à 3 heures, 20 mg/kg): 43% | Δt(°C) ([3]; 1 heure après administration): 2,15 °C | Δt(°C) ([3]; 2 heures après administration): 1,90 °C | Δt(°C) ([3]; 3 heures après administration): 0,45 °C | Δt(°C) ([3]; ½ heure après administration): 1,25 °C

CC(=O)Oc1ccccc1C(=O)O [AAS, aspirine]
part de la dose initiale sous la forme acétylée [4]: ~10 pour 100 | part de la dose absorbée par l'organisme [5]: deux tiers | quantités d'aspirine retrouvées dans le sang [6]: ~3 mg par litre | ALLONGEMENT DU TEMPS DE SAIGNEMENT [1]: 66% | Δ V1 heure ([2]; 20 mg/kg): 0,580±0,03 cm^3 | Δ V3 heures ([2]; 20 mg/kg): 0,930±0,05 cm^3 | VARIATIONS DE VOLUME EXPRIME EN % ([2]; A 1 heure, 20 mg/kg): 72% | VARIATIONS DE VOLUME EXPRIME EN % ([2]; A 3 heures, 20 mg/kg): 115,01% | INDICE DE PROTECTION ([2]; à 1 heure, 20 mg/kg): 7% | INDICE DE PROTECTION ([2]; à 3 heures, 20 mg/kg): 10% | animaux traités avec ulcères ([7]; rat sous contrainte): 80 pour cent | Δt(°C) ([3]; 1 heure après administration): 1,15 °C | Δt(°C) ([3]; 2 heures après administration): 1,40 °C | Δt(°C) ([3]; 3 heures après administration): 0,75 °C | Δt(°C) ([3]; ½ heure après administration): 0,90 °C

CC(=O)Oc1ccccc1C(=O)[O-].CC(=O)Oc1ccccc1C(=O)[O-].NC(N)=O.[Mg+2] [ASMU, acétylsalicylate de magnésium-urée]
acétylsalicylémie, fois plus élevée que celle d'une dose équivalente d'aspirine [8]: entre dix et quinze | salicylémie moyenne, % de la quantité circulante [8]: ~10 pour cent | durée de conservation sans altération notable [9]: deux ans et demi | toxicité chronique: examens cliniques et anatomopathologiques [10]: n'a pas provoqué d'anomalie particulière | toxicité chronique: lésion rénale ou stomacale [10]: aucun signe de lésion rénale ou stomacale | toxicité chronique: examens cliniques et anatomopathologiques [11]: n'a pas provoqué d'anomalie particulière | toxicité chronique: lésion rénale ou stomacale [11]: aucun signe de lésion rénale ou stomacale | pH [12]: ~6 | action curative [13]: l'inflammation a regressé, puis disparu | toxicité aiguë (DL₅₀) diminuée par rapport à l'équivalent aspirine [14]: ~20 pour cent | toxicité aiguë (DL₅₀) diminuée par rapport à l'équivalent aspirine [15]: ~20 pour cent | ALLONGEMENT DU TEMPS DE SAIGNEMENT [1]: 7% | Δ V1 heure [2]: 0,150±0,04 cm^3 | Δ V3 heures [2]: 0,170±0,03 cm^3 | VARIATIONS DE VOLUME EXPRIME EN % ([2]; A 1 heure): 16,48% | VARIATIONS DE VOLUME EXPRIME EN % ([2]; A 3 heures): 18,61% | activité anti-inflammatoire par rapport à celle de l'aspirine ([2]; en moyenne, tests au formol et à l'ovalbumine): dix fois supérieure | INDICE DE PROTECTION ([2]; à 1 heure): 78,6% | INDICE DE PROTECTION ([2]; à 3 heures): 85,4% | irritation de la muqueuse gastrique ([7]; rat, in vivo): irritation comparable, mais légèrement supérieure à celle des témoins | absorption [16]: pratiquement complète | acétylsalicylémie [17]: 40 mg par litre de plasma | Δt(°C) ([3]; 1 heure après administration): 4,75 °C | Δt(°C) ([3]; 2 heures après administration): 4,90 °C | Δt(°C) ([3]; 3 heures après administration): 4,90 °C | Δt(°C) ([3]; ½ heure après administration): 3,70 °C
